# Test results: patent publication US4719046A, “Crysene derivatives” (Burroughs Wellcome Co., priority 1984, dated 1988)
# Counter-ions that a name gives are not always drawn.
# What was measured:
# [1] = test system: Streptococcus pyogenes (CN10); assay: Antibacterial test, Streptococcus pyogenes (agar dilution); type: cell-based
# Description: (§1) Anitbacterial testing against […] (S3264) and Streptococcus pyogenes (CN10) was done with slight modifications using standard agar dilution assays as outlined in Manual of Clinical Microbiology Second Ed., E. H. Lennette. E. H. Spaulding and J. P. Traunt Eds., American Society for Microbiology, Washington, DC, 1974
# [2] = test system: CD2-F1 mice; assay: LD20 in the P388/0 test mice; type: in vivo, mouse (CD2-F1); settings: IP days 1, 5, 9, doses on a mg/kg basis
# Experimental: (§2) CD2-F1 mice, of the same sex, weighing 20±3 g, are used for this test. Control and test animals are injected intraperitoneally with a suspension of ~10^6 viable P388/0 tumor cells on day 0. In each test, several dose levels which bracket the LD20 of the compound are evaluated; each dose level group contains six animals. The test compounds are prepared either in physiologic saline containing 0.05% Tween 80 or distilled water containing 5% dextrose and are administered intraperitoneally on days 1, 5, and 9 relative to tumor implant. Doses are on a mg/kg basis according to individual animals' body weights. The day of death for each animal is recorded, the median identified for each group and the ratios of median survival time for treated (T)/control (C) groups are calculated. The criterion for activity is T/C×100≥120%.
# (§3) ^A Values in parentheses are the highest nontoxic dose where the
# (§4) LD20 was not determined.
# [3] = test system: Mycoplasma smegmatis; assay: Antibacterial test, Mycoplasma smegmatis (agar dilution); type: cell-based
# Description: as §1
# [4] = test system: melanotic melanoma B16; assay: Melanotic Melanoma B16 test; type: in vivo, mouse (B6C3-F1); settings: median survival T/C; IP days 1, 5, 9; active if >125%; dose mg/kg: 1C 100, 6G 50, 3 70, 2 75, 18B 70
# Description: (§5) Methods for evaluating the antitumor activity of these compounds are essentially those used in the Tumor Panel by the Developmental Therapeutics Program, Division of Cancer Treatment, National Cancer Institute, A. Goldin, et al., Methods in Cancer Research, Vol. XVI, p. 165, Academic Press (1979). Some modifications, in dose level and schedule have been made to increase the testing efficiency.
# as §2
# B6C3-F1 mice of the same sex, weighing 20±3 g, are used for this test. A suspension of B16 cells is prepared from a non-necrotic portion of solid tumor tissue obtained from a passage mouse. One gram of tumor is homogenized in 9 mL ice-cold Earle's salts solution and filtered through 1000 mesh screen to remove debris. 0.5 mL of the resulting brei is injected intraperitoneally into each animal. Dosing is carried out as in the P388/0 and L1210 tests. Days of death are recorded for a 60 day period and T/C ratio calculated as in the P388/0 and L1210 tests. The criterion for activity is T/C×100>125%.
# [5] = test system: Herpes simplex 1/vero; assay: Herpes simplex 1/vero plaque inhibition screen; type: cell-based
# Description: Antiviral testing against Herpes simplex 1/vero was done using plaque inhibition methods as outlined in P. Collins and D. J. Bauer, Proc. N.Y. Acad. Sci. 284, 49 (1977) and by plaque reduction methods as outlined in P. Collins and D. J. Bauer, J. Antimicrobial Chemotherapy 3, Supplement A, 73(1977). The column headings labeled Score, Toxicity, and Zone of Inhibition refer to the plaque inhibition screen while the IC50 heading to the plaque reduction screen.
# [6] = test system: lymphocytic leukemia L1210; assay: Lymphocytic Leukemia L1210 Test; type: in vivo, mouse (CD2-F1); settings: median survival T/C; 120 mg/kg IP days 1, 5, 9; active if ≥125%
# Description: as §5, §2
# The protocol for this test is identical to that for P388/0, except that the number of L1210 cells implanted on day 0 is ~10^5 /mouse. […]
# [7] = test system: colon 38 carcinoma; assay: Colon 38 Carcinoma Test; type: in vivo, mouse (C57B1/6); settings: tumor weight T/C at day 20; 120 mg/kg IP days 1, 5, 9; active if ≤42%
# Description: as §5
# This chemically-induced tumor arose in a C57B1/6 mouse and is maintained as a solid tumor in that mouse strain. The subcutaneously growing solid tumor is aseptically excised from passage mice and placed in sterile saline. The tumor is trimmed free of visible necrotic and connective tissue, then divided into 2-3 mm cubes. A cube is implanted subcutaneously in the ventral thoracie region with a sterile trochar on day 0. In each test several dose levels which bracket the LD20 for the compound are evaluated. Ten animals are included in each dose level group and thirty animals in the untreated control group. The test compounds are prepared either in physiologic saline containing 0.05% Tween 80 or distilled water containing 5% dextrose and are administered intraperitoneally on days 1, 5 and 9 after tumor implant. […] At day 20, the animals are sacrificed and the longest (L) and shortest (W) dimensions of each tumor measured with vernier calipers. Tumor weight is calculated from the formula (L× (W)^2 /2). […]
# [8] = test system: Lewis lung carcinoma; assay: Lewis Lung Carcinoma Test; type: in vivo, mouse (BD-F1; tumor from C57B1/6); settings: median survival T/C; 105 mg/kg days 1, 5, 9; active if ≥140%
# Description: as §5
# CD2-F1 mice, of the same sex, weighing 20±3 g, are used for this test. Control and test animals are injected intraperitoneally with a suspension of ~10^6 viable P388/0 tumor cells on day 0. In each test, several dose levels which bracket the LD20 of the compound are evaluated; each dose level group contains six animals. […] The day of death for each animal is recorded, the median identified for each group and the ratios of median survival time for treated (T)/control (C) groups are calculated. […]
# This tumor arose spontaneously in the lung of a C57B1/6 mouse and is maintained by subcutaneous passage in that strain. […] In each test, several dose levels which bracket the LD20 for the compound are evaluated. […] The day of death for each animal is recorded, the median identified for each group and the ratios of median survival time for treated (T)/control (C) groups are calculated. […]
# [9] = test system: M5076 sarcoma; assay: M5076 Sarcoma Test; type: in vivo, mouse (B6C3-F1); settings: median survival T/C; 105 mg/kg IP days 1, 5, 9; active if ≥125%
# Description: as §5, §2
# This sarcoma arose as a solid tumor in the ovary of a C57B1/6 mouse and was subsequently converted to the ascitic form for intraperitoneal use. […]
# [10] = LD20 in the P388/0 test mice; type: in vivo, mouse (CD2-F1); settings: mouse, in vivo, IP days 1, 5, 9, doses on a mg/kg basis, read-out: LD20 column, value in parentheses: highest nontoxic dose where the LD20 was not determined
# Experimental: as §2, §3, §4
# [11] = test system: lymphocytic leukemia P388/0; assay: Lymphocytic Leukemia P388/0 Test; type: in vivo, mouse (CD2-F1); settings: median survival T/C; IP days 1, 5, 9; active if ≥120%; optimal dose mg/kg: 1B 121, 1C 115, 2 100, 3 100, 6G 65, 18B 88, 19H 110, 6H 60, 7 110, 9 300, 10B 1013, 11C 150, 12G 90, 5F 225, 13D 303, 14 196, 15B 250, 16 1012, 4B 180
# Description: as §5, §2
smiles,measurement,setting,value
"CC(=O)OCC(C)(COC(C)=O)NCc1cc2c3ccccc3ccc2c2ccccc12 [Example 16, 2-((6-Chrysenylmethyl)amino)-2-methyl-1,3-propanediol diacetate]",MIC,[1],10 µg/mL
same,LD20,[2],675 mg/kg
same,MIC,[3],10 µg/mL
"CC(C)(CO)NCc1cc2c3ccccc3ccc2c2ccccc12.Cl [Example 18B, 2-((6-Chrysenylmethyl)amino)-2-methylpropanol hydrochloride]",MIC,[1],≤ 3 µg/mL
same,LD20,[2],80 mg/kg
same,T/C × 100% Excluding 60 day Survivors,[4],+125%
same,MIC,[3],10 µg/mL
"CC(CO)(CO)NCc1cc2c3ccccc3ccc2c2ccccc12.Cl [Example 1B, 2-((6-Chrysenylmethyl)amino)-2-methyl-1,3-propanediol hydrochloride]",MIC,[1],≤ 10 µg/mL
same,Zone of Inhibition,[5],43
same,LD20,[2],140 mg/kg
same,MIC,[3],≤ 10 µg/mL
"CC(C)C(CO)(CO)NCc1cc2c3ccccc3ccc2c2ccccc12 [Example 11C, 2-((6-Chrysenylmethyl)amino)-2-isopropyl-1,3-propanediol hydrochloride 1/3 H2 O]",LD20,[2],150 mg/kg
"CC(CO)(CCO)NCc1cc2c3ccccc3ccc2c2ccccc12 (centres unmarked) [Example 12G, 2-((6-chrysenylmethyl)amino)-2-methyl-1,4-butanediol hyrochloride.1/3EtOH]",LD20,[2],90 mg/kg
"CC(CO)(CO)NCc1ccc2ccc3c4ccccc4ccc3c2c1 [Example 19H, 2-((3-Chrysenylmethyl)amino)-2-methyl-1,3-propanediol methanesulfonate]",LD20,[2],150 mg/kg
"CCc1cc2c3ccccc3c(CNC(C)(CO)CO)cc2c2ccccc12 [Example 15B, 2-(((12-Ethyl-6-chrysenyl)methyl)amino)-2-methyl-1,3-propanediol methanesulfonate]",LD20,[2],150 mg/kg
"CS(=O)(=O)O.C[C@H](O)[C@@](C)(CO)NCc1cc2c3ccccc3ccc2c2ccccc12 (relative stereo) [Example 6H, (+-)(2R*,3S*)-2-((6-Chrysenylmethyl)amino)-2-methyl-1,3-butanediol methanesulfonate]",LD20,[2],60 mg/kg
"CC(CO)(CO)NCc1cc2c3ccccc3ccc2c2ccccc12 [Example 1C, 2-((6-Chrysenylmethyl)amino)-2-methyl-1,3-propanediol methanesulfonate]",T/C × 100% Excluding 30 day Survivors,[6],+252%
same,T/C × 100%,[7],36%
same,T/C × 100% Excluding 60 day Survivors,[8],+191%
same,LD20,[2],105 mg/kg
same,T/C × 100% Excluding 60 day Survivors,[4],+146%
same,T/C × 100%,[9],+168%
"COCC(C)(CO)NCc1cc2c3ccccc3ccc2c2ccccc12.Cl (centres unmarked) [Example 9D, 3-methoxy-2-((6-chrysenylmethyl)amino)-2-methyl-1-propanol hydrochloride]",LD20,[2],425 mg/kg
"Cl.OCC(CO)(CO)NCc1cc2c3ccccc3ccc2c2ccccc12 [Example 2, 2-((6-chrysenylmethyl)amino)-2-hydroxymethyl-1,3-propanediol hydrochloride]",MIC,[1],10 µg/mL
same,LD20,[2],100 mg/kg
same,T/C × 100% Excluding 60 day Survivors,[4],+144%
same,MIC,[3],10 µg/mL
"C[C@@H](O)[C@@](C)(CO)NCc1cc2c3ccccc3ccc2c2ccccc12.Cl (relative stereo) [Example 7, (+-)(2R*,3R*)-2-((6-Chrysenylmethyl)amino)-2-methyl-1,3-butanediol hydrochloride]",LD20,[2],100 mg/kg
"OCC(CO)NCc1cc2c3ccccc3ccc2c2ccccc12 [Example 14, 2-((6-Chrysenylmethyl)amino)-1,3-propanediol methanesulfonate]",LD20,[2],160 mg/kg
C[C@@H](O)C(C)(NCc1cc2c3ccccc3ccc2c2ccccc12)[C@@H](C)O (relative stereo) [Example 5F],LD20,[2],225 mg/kg
"CC(CO)(CO)NCc1cc2c3ccccc3c(Cl)cc2c2ccccc12 [Example 4B, 2-(((12-Chloro-6-chrysenyl)methyl)amino)-2-methyl-1,3-propanediol methanesulfonate.1/3H2 O]",LD20,[2],180 mg/kg
"O[C@@H]1CCC[C@H](O)[C@H]1NCc1cc2c3ccccc3ccc2c2ccccc12 [Example 10B, (1α,2β,3α)-2-((6-Chrysenylmethyl)amino)-1,3-cyclohexanediol hydrochloride]",MTD,[10],675 mg/kg
"CCC(CO)(CO)NCc1cc2c3ccccc3ccc2c2ccccc12.Cl [Example 3, 2-((6-Chrysenylmethyl)amino)-2-ethyl-1,3-propanediol hydrochloride]",MIC,[1],10 µg/mL
same,LD20,[2],100 mg/kg
same,T/C × 100% Excluding 60 day Survivors,[4],+144%
same,MIC,[3],> 100 µg/mL
"CS(=O)(=O)O.C[C@H](O)C(NCc1cc2c3ccccc3ccc2c2ccccc12)[C@@H](C)O (stereo partly drawn) [Example 13D, meso-3-((6-Chrysenylmethyl)amino)-2,4-pentanediol methanesulfonate]",LD20,[2],675 mg/kg
same,T/C × 100% (Excluding 30 Day Survivors),[11],+200%
